# Counter-ions that a name gives are not always drawn.
# Target: T1, IRE1α (Homo sapiens, UniProt O75460, D688N)
# T1 construct: containing the kinase and RNase domains (KR, AA G547-1L977, D688N); made in house; host or cells: Sf9 insect cells
# Assay: IRE1α TR-FRET competition binding assay (IRE1α HTRF)
# Details: His-tagged IRE1α kinase dead construct (KR, D688N) 0.25 nM; Alexa fluor 647-labeled ATP competitive probe 2 nM; one hour at room temperature; read-out: IRE1α (alpha) HTRF (IC50)
# Method: Example 59. IRE1α TR-FRET Competition Binding Assay
# To determine the affinity of compound binding to the kinase domain of IRE1α, a time-resolved fluorescence resonance energy transfer (TR-FRET) competition assay was used.
# A His-tagged IRE1α kinase dead construct containing the kinase and RNase domains (KR, AA G547-1L977, D688N) was expressed in Sf9 insect cells. The purified protein (final concentration 0.25 nM) was pre-incubated with anti-His Europium labeled antibody (Life Technologies PV5596, final concentration 2 nM) for one hour at 4° C. in TR-FRET Assay Buffer (50 mM HEPES, pH 7.5, 10 mM MgCl2, 0.083 mM Brij 35, 1 mM DTT, and 0.1% bovine gamma globulin) prior to addition to test compounds. An Alexa fluor 647-labeled probe based on an ATP competitive inhibitor was added to a final concentration of 2 nM. Reactions were carried out for one hour at room temperature in a final volume of 20 μL in 384 well white ProxiPlates (Perkin Elmer 6008289). Binding of the probe to the IRE1α protein was detected in an Envision instrument (PerkinElmer) equipped with a TRF laser option and a LANCE/Delfia Dual/Bias D400/D630 mirror (Ex 347 nm, 1st Em 665 nm, 2nd Em 615 nm).
# T1 sequence (O75460 547-977 D688N): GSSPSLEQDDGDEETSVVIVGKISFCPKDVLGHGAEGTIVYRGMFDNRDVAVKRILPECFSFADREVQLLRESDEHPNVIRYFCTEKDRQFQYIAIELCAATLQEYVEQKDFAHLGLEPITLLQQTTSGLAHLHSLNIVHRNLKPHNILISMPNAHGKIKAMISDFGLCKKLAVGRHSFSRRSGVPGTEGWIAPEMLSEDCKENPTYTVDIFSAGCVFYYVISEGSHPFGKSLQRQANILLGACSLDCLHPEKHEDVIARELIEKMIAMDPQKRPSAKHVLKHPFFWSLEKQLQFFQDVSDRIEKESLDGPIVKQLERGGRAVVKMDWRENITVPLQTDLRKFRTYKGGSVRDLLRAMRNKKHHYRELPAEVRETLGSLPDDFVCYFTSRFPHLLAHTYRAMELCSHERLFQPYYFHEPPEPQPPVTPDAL
row,Structure (SMILES),IC50 [nM]
1,"Cc1cc(-c2cc(F)c(NS(=O)(=O)Cc3ccc(F)cc3)cc2F)nc2cnc(N[C@H]3CC[C@H](N(C)C)CC3)nc12 [Compound 137, N-(4-(2-(((1,4-trans)-4-(Dimethylamino)cyclohexyl)amino)-8-methylpyrido[3,2-d]pyrimidin-6-yl)-2,5-difluorophenyl)-1-(4-fluorophenyl)methanesulfonamide]",0.23
2,"O=S(=O)(Cc1ccccc1)Nc1ccc(-c2cnc3nc(N[C@@H]4CNC[C@@H](F)C4)ncc3c2)cc1F [Compound 109, N-(2-Fluoro-4-(2-(((3S,5S)-5-fluoropiperidin-3-yl)amino)pyrido[2,3-d]pyrimidin-6-yl)phenyl)-1-phenylmethanesulfonamide]",5.7
3,"Cc1cc(-c2ccc(NS(=O)(=O)CCC(C)(F)F)c(F)c2)nc2cnc(N[C@H]3CC[C@H](N(C)C)CC3)nc12 [Compound 113, N-(4-(2-(((1,4-trans)-4-(Dimethylamino)cyclohexyl)amino)-8-methylpyrido[3,2-d]pyrimidin-6-yl)-2-fluorophenyl)-3,3-difluorobutane-1-sulfonamide formate]",0.17
4,"Cc1nc(NS(=O)(=O)Cc2ccc(F)cc2)ccc1-c1cc(C(F)F)c2nc(N[C@H]3CC[C@H](N(C)C)CC3)ncc2n1 [Compound 133, N-(5-(8-(Difluoromethyl)-2-(((1,4-trans)-4-(dimethylamino)cyclohexyl)amino)pyrido[3,2-d]pyrimidin-6-yl)-6-methylpyridin-2-yl)-1-(4-fluorophenyl)methanesulfonamide]",5.2
5,"CN(C)[C@H]1CC[C@H](Nc2ncc3nc(-c4ccc(NS(=O)(=O)Cc5ccc(F)cc5)c(F)c4)cc(CF)c3n2)CC1 [Compound 130, N-[4-[2-[[(1,4-trans)-4-(Dimethylamino)cyclohexyl]amino]-8-(fluoromethyl)pyrido[3,2-d]pyrimidin-6-yl]-2-fluoro-phenyl]-1-(4-fluorophenyl)methanesulfonamide]",0.2
6,"Cc1cc(-c2ccc(NS(=O)(=O)CCC(F)(F)F)c(F)c2)nc2cnc(N[C@@H]3CNC[C@@H](F)C3)nc12 [Compound 110, 3,3,3-Trifluoro-N-(2-fluoro-4-(2-(((3S,5S)-5-fluoropiperidin-3-yl)amino)-8-methylpyrido[3,2-d]pyrimidin-6-yl)phenyl)propane-1-sulfonamide]",1.1
7,"COCc1cc(-c2ccc(NS(=O)(=O)Cc3ccc(F)cc3)c(F)c2)nc2cnc(N[C@H]3CC[C@H](N(C)C)CC3)nc12 [Compound 138, N-(4-(2-(((1,4-trans)-4-(Dimethylamino)cyclohexyl)amino)-8-(methoxymethyl)pyrido[3,2-d]pyrimidin-6-yl)-2-fluorophenyl)-1-(4-fluorophenyl)methanesulfonamide]",0.21
8,"Cc1cc(-c2ccc(NS(=O)(=O)CCC(F)(F)F)nc2)nc2cnc(N[C@H]3CC[C@H](N(C)C)CC3)nc12 [Compound 125, N-(5-(2-(((1,4-trans)-4-(Dimethylamino)cyclohexyl)amino)-8-methylpyrido[3,2-d]pyrimidin-6-yl)pyridin-2-yl)-3,3,3-trifluoropropane-1-sulfonamide]",0.44
9,"CN(C)[C@H]1CC[C@H](Nc2ncc3nc(-c4ccc(NS(=O)(=O)Cc5ccc(F)cc5)c(F)c4)cc(C(F)F)c3n2)CC1 [Compound 131, N-1,4-trans-[4-[8-(Difluoromethyl)-2-[[4-(dimethylamino)cyclohexyl]amino]pyrido[3,2-d]pyrimidin-6-yl]-2-fluoro-phenyl]-1-(4-fluorophenyl)methanesulfonamide]",0.15
10,"O=S(=O)(Cc1ccc(F)cc1)Nc1ccc(-c2cc(C(F)F)c3nc(N[C@@H]4CNC[C@@H](F)C4)ncc3n2)cc1F [Compound 139, N-[4-[8-(Difluoromethyl)-2-[[(3S,5S)-5-fluoro-3-piperidyl]amino]pyrido[3,2-d]pyrimidin-6-yl]-2-fluoro-phenyl]-1-(4-fluorophenyl)methanesulfonamide hydrochloride]",0.23

# Reference: patent US20220204498A1, “PYRIDO-PYRIMIDINYL COMPOUNDS AND METHODS OF USE” (Genentech, Inc., priority 2019, published 2022)
